Measured values: ChEMBL document CHEMBL1144935, “Synthesis, biological evaluation, and receptor docking simulations of 2-[(acylamino)ethyl]-1,4-benzodiazepines as kappa-opioid receptor agonists endowed with antinociceptive and antiamnesic activity” (J Med Chem, 2003)

Legend:
[1] = biological target: T1, Kappa-type opioid receptor (Homo sapiens, UniProt P41145); assay: Binding constant towards human Opioid receptor kappa 1 was reported
[2] = biological target: T1, Kappa-type opioid receptor; assay: Binding affinity against opioid receptor kappa 1 from human cloned receptor
Mu-type opioid receptor [3] = biological target: Mu-type opioid receptor (Homo sapiens, UniProt P35372); assay: Binding affinity determined against Opioid receptor mu 1 from human cloned receptor
[4] = biological target: Kappa-type opioid receptor (Cavia porcellus, UniProt P41144); assay: Binding affinity determined against Opioid receptor kappa 1 from a native receptor in guinea pig
[5] = biological target: Delta-type opioid receptor (Homo sapiens, UniProt P41143)
Description: Binding affinity determined against Opioid receptor delta 1 from human cloned receptor

Mu-type opioid receptor [6] = biological target: Mu-type opioid receptor (Cavia porcellus, UniProt P97266); assay: Binding affinity of compound was determined against Opioid receptor mu 1 from native receptor in guinea pig
Sequence of Mu-type opioid receptor (Cavia porcellus, UniProt P97266) (P97266 whole entry): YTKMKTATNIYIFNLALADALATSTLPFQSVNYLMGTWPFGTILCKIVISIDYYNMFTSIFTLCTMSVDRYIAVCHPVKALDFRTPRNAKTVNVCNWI

T1 sequence (P41145 whole entry): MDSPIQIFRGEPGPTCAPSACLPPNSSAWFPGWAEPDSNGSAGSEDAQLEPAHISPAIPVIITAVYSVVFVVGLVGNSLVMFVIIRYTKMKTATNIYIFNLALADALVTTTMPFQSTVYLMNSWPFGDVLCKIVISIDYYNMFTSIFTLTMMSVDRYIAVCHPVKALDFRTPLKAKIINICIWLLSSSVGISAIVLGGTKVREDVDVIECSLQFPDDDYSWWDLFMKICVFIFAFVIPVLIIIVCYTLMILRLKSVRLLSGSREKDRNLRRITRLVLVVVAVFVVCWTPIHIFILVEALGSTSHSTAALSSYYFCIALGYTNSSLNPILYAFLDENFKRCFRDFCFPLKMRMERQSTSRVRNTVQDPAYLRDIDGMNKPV
Sequence of Delta-type opioid receptor (P41143 whole entry): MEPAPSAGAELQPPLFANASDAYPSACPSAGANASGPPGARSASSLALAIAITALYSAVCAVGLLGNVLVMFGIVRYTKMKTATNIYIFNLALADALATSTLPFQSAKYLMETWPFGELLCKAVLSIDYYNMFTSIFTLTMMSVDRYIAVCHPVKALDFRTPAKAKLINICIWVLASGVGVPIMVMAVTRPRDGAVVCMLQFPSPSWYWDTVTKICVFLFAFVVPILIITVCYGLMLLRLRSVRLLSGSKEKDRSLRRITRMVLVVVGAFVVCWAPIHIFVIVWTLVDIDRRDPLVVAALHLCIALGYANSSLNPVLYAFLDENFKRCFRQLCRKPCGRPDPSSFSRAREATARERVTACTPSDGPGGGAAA
Sequence of Mu-type opioid receptor (Homo sapiens, UniProt P35372) (P35372 whole entry): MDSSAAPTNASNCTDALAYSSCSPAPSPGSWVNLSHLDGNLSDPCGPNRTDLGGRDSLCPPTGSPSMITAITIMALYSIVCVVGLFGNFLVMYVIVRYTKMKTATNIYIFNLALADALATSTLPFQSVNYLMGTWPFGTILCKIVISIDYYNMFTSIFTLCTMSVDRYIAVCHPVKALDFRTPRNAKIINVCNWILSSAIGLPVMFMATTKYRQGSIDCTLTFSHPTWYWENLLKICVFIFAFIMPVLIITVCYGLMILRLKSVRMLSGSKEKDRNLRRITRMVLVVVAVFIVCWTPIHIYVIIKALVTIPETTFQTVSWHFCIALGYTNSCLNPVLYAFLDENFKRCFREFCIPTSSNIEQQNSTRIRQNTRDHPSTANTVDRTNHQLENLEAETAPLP
Sequence of Kappa-type opioid receptor (Cavia porcellus, UniProt P41144) (P41144 whole entry): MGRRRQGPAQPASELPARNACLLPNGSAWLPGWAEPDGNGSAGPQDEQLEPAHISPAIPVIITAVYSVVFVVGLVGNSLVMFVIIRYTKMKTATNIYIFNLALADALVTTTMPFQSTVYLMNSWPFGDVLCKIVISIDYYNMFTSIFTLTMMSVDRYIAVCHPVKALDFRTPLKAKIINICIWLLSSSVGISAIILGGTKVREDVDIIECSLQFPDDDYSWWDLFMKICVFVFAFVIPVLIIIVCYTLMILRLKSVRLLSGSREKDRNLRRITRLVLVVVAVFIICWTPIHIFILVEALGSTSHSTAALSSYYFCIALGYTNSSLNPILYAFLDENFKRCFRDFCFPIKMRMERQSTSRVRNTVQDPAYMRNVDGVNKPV

Row | Compound | Ki [1] [nM] | Ki [2] [nM] | Ki (Mu-type opioid receptor [3]) [nM] | Ki [4] [nM] | Ki [5] [nM] | Ki (Mu-type opioid receptor [6]) [nM]
1 | O=C(NCCC1CN=C(c2ccccc2)c2ccccc2N1)c1ccccc1 (configuration not stated) | 0.251 | 0.25 | – | – | – | –
2 | CN1c2ccc(Cl)cc2C(c2ccccc2)=NCC1CCNC(=O)c1cccs1 (configuration not stated) | – | 0.7 | 26.3 | – | – | –
3 | CN1c2ccc(Cl)cc2C(c2ccccc2)=NCC1CCNC(=O)c1ccccc1F (configuration not stated) | 1.55 | 1.52 | – | – | – | –
4 | COc1cccc2c1C(c1ccccc1)=NCC(CCNC(=O)c1cccs1)N2C (configuration not stated) | 3.8 | 3.77 | – | 116 | – | –
5 | O=C(NCCC1CN=C(c2ccccc2)c2ccccc2N1)c1cccs1 (configuration not stated) | 0.447 | 0.45 | – | 1.74 | – | –
6 | CN1c2ccccc2C(c2ccccc2)=NCC1CCNC(=O)c1ccc(F)cc1 (configuration not stated) | 0.302 | 0.3 | – | – | – | –
7 | CN1c2ccc(Cl)cc2C(c2ccccc2)=NCC1CCNC(=O)c1cc2ccccc2[nH]1 (configuration not stated) | 13.5 | 13.6 | – | – | – | –
8 | CN1c2ccccc2C(c2ccccc2F)=NCC1CCNC(=O)c1ccsc1 (configuration not stated) | – | 0.37 | 3 | 0.78 | 69 | 1.93
9 | CN1c2ccc(Cl)cc2C(c2ccccc2)=NCC1CCNC(=O)c1ccc(F)cc1 (configuration not stated) | 0.55 | 0.55 | – | – | – | –
10 | CN1c2ccccc2C(c2ccccc2)=NCC1CCNC(=O)c1cccs1 (configuration not stated) | – | 0.58 | 9.4 | – | – | –
11 | CN1c2ccccc2C(c2ccccc2)=NC[C@@H]1CCNC(=O)c1cccs1 | 0.427 | 0.43 | 9.2 | – | – | –
12 | CN1c2ccc(Cl)cc2C(c2ccccc2)=NC[C@@H]1CCNC(=O)c1cccs1 | 0.692 | 0.69 | 27.4 | – | – | –
13 | CN1c2ccccc2C(c2ccccc2F)=NC[C@@H]1CCNC(=O)c1ccsc1 | 0.17 | 0.17 | 1.5 | – | 27.8 | –
14 | CN1c2ccccc2C(c2ccccc2)=NC[C@H]1CCNC(=O)c1cccs1 | – | 1.28 | 54.8 | – | – | –
15 | CN1c2ccc(Cl)cc2C(c2ccccc2)=NC[C@H]1CCNC(=O)c1cccs1 | – | 0.79 | 33.2 | – | – | –
16 | CN1c2ccccc2C(c2ccccc2F)=NC[C@H]1CCNC(=O)c1ccsc1 | – | 0.71 | 24.8 | – | 438 | –
17 | O=C(NCCC1CN=C(c2ccccc2)c2ccccc2N1)c1ccccc1F (configuration not stated) | 0.537 | 0.53 | – | – | – | –
18 | CN1c2ccccc2C(c2ccccc2)=NCC1CCNC(=O)c1ccc([N+](=O)[O-])cc1 (configuration not stated) | 0.479 | 0.47 | – | – | – | –
19 | CN(CCC1CN=C(c2ccccc2)c2ccccc2N1C)C(=O)c1cccs1 (configuration not stated) | 4.37 | 4.34 | – | 25.7 | – | –
20 | CN1c2ccc(Cl)cc2C(c2ccccc2)=NCC1CCNC(=O)c1ccc(Cl)cc1 (configuration not stated) | 1.32 | 1.31 | – | – | – | –
21 | O=C(NCCC1CN=C(c2ccccc2)c2ccccc2N1)c1ccc(F)cc1 (configuration not stated) | 0.282 | 0.28 | – | – | – | –
22 | CN1c2ccccc2C(c2ccccc2)=NCC1CCNC(=O)c1ccccc1F (configuration not stated) | 0.363 | 0.36 | – | – | – | –
23 | Oc1ccc2c3c1O[C@H]1c4[nH]c5ccccc5c4C[C@@]4(O)[C@@H](C2)N(CC2CC2)CC[C@]314 [NALTRINDOLE] | – | – | – | 10.2 | – | 14.7
